Results reported in BindingDB's records for doi:10.1007/s00213-006-0490-4 (Purdue University, 2006).
pKi: −log10 of the molar value.

What was measured:
[1] = biological target: D(1A) dopamine receptor (Homo sapiens, UniProt P21728)
[2] = biological target: D(3) dopamine receptor (Rattus norvegicus, UniProt P19020)
[3] = biological target: Mu-type opioid receptor (Homo sapiens, UniProt P35372)
[4] = biological target: Muscarinic acetylcholine receptor M2 (Homo sapiens, UniProt P08172)
[5] = biological target: Histamine H2 receptor (Homo sapiens, UniProt P25021)
[6] = biological target: Muscarinic acetylcholine receptor M5 (Homo sapiens, UniProt P08912)
Chain of Muscarinic acetylcholine receptor M5 (P08912 whole entry): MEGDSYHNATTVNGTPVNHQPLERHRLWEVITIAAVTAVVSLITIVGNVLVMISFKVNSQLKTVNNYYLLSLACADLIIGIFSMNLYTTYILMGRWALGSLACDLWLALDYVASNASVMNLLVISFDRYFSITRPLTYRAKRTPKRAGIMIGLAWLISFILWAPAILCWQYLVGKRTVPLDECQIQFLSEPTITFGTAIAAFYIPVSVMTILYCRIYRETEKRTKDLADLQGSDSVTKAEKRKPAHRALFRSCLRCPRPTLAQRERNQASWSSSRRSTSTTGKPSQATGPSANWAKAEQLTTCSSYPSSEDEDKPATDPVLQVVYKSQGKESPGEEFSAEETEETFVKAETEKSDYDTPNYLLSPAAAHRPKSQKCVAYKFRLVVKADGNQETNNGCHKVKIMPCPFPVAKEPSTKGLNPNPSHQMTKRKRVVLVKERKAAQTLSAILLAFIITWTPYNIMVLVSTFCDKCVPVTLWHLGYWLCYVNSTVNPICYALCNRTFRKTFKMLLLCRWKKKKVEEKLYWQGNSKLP

[7] = biological target: 5-hydroxytryptamine receptor 6 (Homo sapiens, UniProt P50406)
Chain of 5-hydroxytryptamine receptor 6 (P50406 whole entry): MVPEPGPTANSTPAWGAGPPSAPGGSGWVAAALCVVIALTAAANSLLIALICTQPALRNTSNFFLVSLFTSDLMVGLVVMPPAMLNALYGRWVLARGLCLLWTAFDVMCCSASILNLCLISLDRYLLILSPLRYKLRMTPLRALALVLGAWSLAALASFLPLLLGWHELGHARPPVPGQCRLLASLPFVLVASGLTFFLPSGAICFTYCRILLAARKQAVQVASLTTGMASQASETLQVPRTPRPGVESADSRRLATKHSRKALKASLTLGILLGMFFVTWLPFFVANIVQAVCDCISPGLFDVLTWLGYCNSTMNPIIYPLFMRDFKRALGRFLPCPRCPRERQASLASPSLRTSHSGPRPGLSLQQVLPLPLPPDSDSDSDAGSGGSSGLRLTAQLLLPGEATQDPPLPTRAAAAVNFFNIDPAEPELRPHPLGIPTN

[8] = biological target: Alpha-2B adrenergic receptor (Homo sapiens, UniProt P18089)
Chain of Alpha-2B adrenergic receptor (P18089 whole entry): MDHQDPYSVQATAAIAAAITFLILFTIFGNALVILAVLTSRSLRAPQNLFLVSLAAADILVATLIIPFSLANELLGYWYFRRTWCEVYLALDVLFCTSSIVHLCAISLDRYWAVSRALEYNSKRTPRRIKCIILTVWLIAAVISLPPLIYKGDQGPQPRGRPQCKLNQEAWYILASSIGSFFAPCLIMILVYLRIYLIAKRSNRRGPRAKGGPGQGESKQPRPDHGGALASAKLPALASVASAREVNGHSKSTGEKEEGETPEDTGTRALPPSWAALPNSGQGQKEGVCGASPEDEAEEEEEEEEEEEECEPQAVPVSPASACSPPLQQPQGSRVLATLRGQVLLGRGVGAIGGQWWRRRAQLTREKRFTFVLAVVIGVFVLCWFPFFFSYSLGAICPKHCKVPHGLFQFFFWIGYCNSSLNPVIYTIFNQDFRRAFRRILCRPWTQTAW

[9] = biological target: Histamine H3 receptor (Cavia porcellus, UniProt Q9JI35)
[10] = biological target: Histamine H1 receptor (Homo sapiens, UniProt P35367)
Chain of Histamine H1 receptor (P35367 whole entry): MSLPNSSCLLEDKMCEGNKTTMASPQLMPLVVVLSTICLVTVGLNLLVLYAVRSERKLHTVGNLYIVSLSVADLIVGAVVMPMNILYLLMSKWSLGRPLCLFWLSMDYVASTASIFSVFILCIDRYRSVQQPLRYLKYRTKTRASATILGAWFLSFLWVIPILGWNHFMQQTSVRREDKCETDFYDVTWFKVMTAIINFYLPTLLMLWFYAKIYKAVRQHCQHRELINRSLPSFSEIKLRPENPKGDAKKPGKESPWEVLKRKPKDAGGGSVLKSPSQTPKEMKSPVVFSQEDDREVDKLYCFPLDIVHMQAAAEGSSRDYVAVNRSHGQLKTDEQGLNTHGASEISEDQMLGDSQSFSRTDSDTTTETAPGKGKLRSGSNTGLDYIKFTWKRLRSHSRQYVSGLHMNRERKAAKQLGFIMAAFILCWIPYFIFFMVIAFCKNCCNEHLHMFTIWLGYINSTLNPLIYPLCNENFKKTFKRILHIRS

[11] = biological target: D(1B) dopamine receptor (Homo sapiens, UniProt P21918)
[12] = biological target: 5-hydroxytryptamine receptor 2C (Rattus norvegicus, UniProt P08909)
Chain of 5-hydroxytryptamine receptor 2C (P08909 whole entry): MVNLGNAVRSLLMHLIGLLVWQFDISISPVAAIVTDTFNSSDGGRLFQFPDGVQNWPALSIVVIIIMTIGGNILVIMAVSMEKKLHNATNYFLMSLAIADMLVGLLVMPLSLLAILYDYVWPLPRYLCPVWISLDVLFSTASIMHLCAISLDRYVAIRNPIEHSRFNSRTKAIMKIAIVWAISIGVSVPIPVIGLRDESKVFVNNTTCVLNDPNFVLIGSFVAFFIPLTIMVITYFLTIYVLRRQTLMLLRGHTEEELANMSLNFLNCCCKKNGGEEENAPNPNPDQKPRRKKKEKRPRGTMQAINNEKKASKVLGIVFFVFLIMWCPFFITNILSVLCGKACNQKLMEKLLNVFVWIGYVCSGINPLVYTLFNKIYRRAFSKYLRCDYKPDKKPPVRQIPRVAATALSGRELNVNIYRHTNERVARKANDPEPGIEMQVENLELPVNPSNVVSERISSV

[13] = biological target: Alpha-2A adrenergic receptor (Homo sapiens, UniProt P08913)
[14] = biological target: 5-hydroxytryptamine receptor 2A (Homo sapiens, UniProt P28223)
[15] = biological target: Kappa-type opioid receptor (Homo sapiens, UniProt P41145)
[16] = biological target: D(2) dopamine receptor (Homo sapiens, UniProt P14416)
Chain of D(2) dopamine receptor (P14416 whole entry): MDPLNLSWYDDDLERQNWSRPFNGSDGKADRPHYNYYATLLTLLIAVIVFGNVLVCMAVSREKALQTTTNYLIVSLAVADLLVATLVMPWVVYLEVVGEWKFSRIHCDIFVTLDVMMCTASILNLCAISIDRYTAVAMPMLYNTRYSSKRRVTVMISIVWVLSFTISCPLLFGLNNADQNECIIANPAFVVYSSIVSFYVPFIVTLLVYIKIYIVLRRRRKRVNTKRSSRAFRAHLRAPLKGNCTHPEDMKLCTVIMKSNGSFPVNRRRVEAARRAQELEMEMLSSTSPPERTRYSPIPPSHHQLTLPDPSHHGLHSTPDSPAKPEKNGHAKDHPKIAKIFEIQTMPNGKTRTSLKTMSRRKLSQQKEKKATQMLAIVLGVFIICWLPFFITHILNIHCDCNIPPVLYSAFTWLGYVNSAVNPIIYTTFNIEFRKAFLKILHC

[17] = biological target: Beta-1 adrenergic receptor (Rattus norvegicus, UniProt P18090)
[18] = biological target: Alpha-2C adrenergic receptor (Homo sapiens, UniProt P18825)
Chain of Alpha-2C adrenergic receptor (P18825 whole entry): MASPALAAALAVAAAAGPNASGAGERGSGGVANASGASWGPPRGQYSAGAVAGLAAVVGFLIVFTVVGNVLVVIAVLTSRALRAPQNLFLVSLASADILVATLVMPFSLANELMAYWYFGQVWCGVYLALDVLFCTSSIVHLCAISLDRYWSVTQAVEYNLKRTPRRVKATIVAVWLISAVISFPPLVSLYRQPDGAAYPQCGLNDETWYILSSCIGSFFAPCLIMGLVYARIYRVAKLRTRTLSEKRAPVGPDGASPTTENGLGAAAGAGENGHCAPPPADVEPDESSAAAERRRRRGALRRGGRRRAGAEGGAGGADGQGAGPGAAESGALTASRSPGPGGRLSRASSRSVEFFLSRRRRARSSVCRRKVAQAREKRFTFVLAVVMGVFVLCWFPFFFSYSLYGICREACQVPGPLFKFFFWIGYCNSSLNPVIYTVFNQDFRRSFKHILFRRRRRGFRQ

[19] = biological target: Beta-2 adrenergic receptor (Rattus norvegicus, UniProt P10608)
[20] = biological target: 5-hydroxytryptamine receptor 1E (Homo sapiens, UniProt P28566)
[21] = biological target: 5-hydroxytryptamine receptor 5A (Homo sapiens, UniProt P47898)
Chain of 5-hydroxytryptamine receptor 5A (P47898 whole entry): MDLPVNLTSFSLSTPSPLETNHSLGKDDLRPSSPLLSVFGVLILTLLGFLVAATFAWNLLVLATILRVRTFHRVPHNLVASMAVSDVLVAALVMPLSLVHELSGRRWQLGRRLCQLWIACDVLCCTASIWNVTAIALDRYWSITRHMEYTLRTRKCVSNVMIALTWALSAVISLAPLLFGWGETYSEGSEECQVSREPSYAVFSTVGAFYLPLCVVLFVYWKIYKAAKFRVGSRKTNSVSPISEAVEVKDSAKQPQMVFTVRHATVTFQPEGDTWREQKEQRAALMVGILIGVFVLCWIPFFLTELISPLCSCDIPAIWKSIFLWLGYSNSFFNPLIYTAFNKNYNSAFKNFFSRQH

[22] = biological target: Delta-type opioid receptor (Homo sapiens, UniProt P41143)
[23] = biological target: Histamine H4 receptor (Homo sapiens, UniProt Q9H3N8)
[24] = biological target: Gamma-aminobutyric acid receptor subunit alpha-1 (Rattus norvegicus, UniProt P62813)
Chain of Gamma-aminobutyric acid receptor subunit alpha-1 (P62813 whole entry): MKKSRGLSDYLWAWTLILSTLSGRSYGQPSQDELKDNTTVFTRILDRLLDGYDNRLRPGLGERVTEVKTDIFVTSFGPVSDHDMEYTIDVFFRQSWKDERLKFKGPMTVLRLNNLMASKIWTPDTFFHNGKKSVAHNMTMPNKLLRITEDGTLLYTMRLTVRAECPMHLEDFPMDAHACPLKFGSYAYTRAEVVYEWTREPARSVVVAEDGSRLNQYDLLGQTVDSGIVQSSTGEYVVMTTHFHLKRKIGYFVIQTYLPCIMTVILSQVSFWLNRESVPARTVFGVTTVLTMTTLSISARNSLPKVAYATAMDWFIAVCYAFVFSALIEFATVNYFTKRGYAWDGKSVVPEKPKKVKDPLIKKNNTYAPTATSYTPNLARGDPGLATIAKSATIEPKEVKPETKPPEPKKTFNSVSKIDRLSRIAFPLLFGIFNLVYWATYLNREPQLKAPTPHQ

Chain of D(3) dopamine receptor (P19020 whole entry): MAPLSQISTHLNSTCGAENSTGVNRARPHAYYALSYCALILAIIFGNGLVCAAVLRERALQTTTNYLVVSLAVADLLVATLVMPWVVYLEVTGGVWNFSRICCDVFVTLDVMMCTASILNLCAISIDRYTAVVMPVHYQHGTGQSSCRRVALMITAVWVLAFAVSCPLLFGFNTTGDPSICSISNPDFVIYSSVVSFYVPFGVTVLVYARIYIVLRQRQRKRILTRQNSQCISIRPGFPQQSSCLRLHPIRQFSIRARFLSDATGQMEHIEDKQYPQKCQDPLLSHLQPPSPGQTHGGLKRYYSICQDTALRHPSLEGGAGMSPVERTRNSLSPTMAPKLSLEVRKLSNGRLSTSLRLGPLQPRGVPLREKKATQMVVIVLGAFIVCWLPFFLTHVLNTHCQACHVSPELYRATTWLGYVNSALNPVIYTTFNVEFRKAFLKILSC
Chain of Mu-type opioid receptor (P35372 whole entry): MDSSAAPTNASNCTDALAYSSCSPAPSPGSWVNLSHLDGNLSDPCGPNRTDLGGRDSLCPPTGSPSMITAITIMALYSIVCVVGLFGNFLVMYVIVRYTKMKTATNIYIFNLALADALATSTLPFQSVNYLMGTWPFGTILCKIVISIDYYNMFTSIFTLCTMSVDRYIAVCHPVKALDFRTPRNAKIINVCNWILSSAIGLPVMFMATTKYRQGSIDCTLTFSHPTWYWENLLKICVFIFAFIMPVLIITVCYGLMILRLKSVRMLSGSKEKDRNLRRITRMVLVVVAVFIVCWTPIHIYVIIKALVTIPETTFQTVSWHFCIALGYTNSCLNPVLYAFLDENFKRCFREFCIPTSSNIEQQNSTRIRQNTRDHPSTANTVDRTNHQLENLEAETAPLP

pKi [1]: < 5.00
pKi [2]: 6.43
pKi [3]: < 5.00
pKi [4]: < 5.00
pKi [5]: < 5.00
pKi [6]: < 5.00
pKi [7]: < 5.00
pKi [8]: < 5.00
pKi [9]: < 5.00
pKi [10]: < 5.00
pKi [11]: < 5.00
pKi [12]: < 5.00
pKi [13]: < 5.00
pKi [14]: 5.20
pKi [15]: 6.39
pKi [16]: 6.03
pKi [17]: < 5.00
pKi [18]: 5.59
pKi [19]: < 5.00
pKi [20]: < 5.00
pKi [21]: < 5.00
pKi [22]: < 5.00
pKi [23]: < 5.00
pKi [24]: < 5.00
SMILES: COc1ccccc1N1CCN(CCN(C(=O)C2CCCCC2)c2ccccn2)CC1
